Where two headings read alike, the source gives them in different places.
How the values were obtained:
S. aureus (SA RN450) = assay: Antibacterial MIC, gram positive; type: cell-based
E. coli (EC D1-209) = assay: Antibacterial MIC, gram negative; type: cell-based
[1] = CLSI methodology, 35° C., 18-24 hours

## CC1=NCCN1CC(=O)c1ccc(O)c2c1CC1CC3C(N(C)C)C(O)=C(C(N)=O)C(=O)C3(O)C(O)=C1C2=O (centres unmarked) [CH]
S. aureus (SA RN450); [1]
  MIC Gram Positive (SA RN450): ** (modest antibacterial activity (between about 4 and 8 μg/mL))
E. coli (EC D1-209); [1]
  MIC Gram Negative (EC D1-209): * (weak antibacterial activity (greater than about 8 μg/mL))

## CN(C)C1C(O)=C(C(N)=O)C(=O)C2(O)C(O)=C3C(=O)c4c(O)ccc(-c5cnc6ccccc6c5)c4CC3CC12 (centres unmarked) [G]
S. aureus (SA RN450); [1]
  MIC Gram Positive (SA RN450): *** (Good antibacterial activity (e.g., less than about 4 μg/mL))
E. coli (EC D1-209); [1]
  MIC Gram Negative (EC D1-209): * (weak antibacterial activity (greater than about 8 μg/mL))

## CN(C)CCN(C)C(=O)c1cccc(-c2ccc(O)c3c2CC2CC4C(N(C)C)C(O)=C(C(N)=O)C(=O)C4(O)C(O)=C2C3=O)c1 (centres unmarked) [R]
S. aureus (SA RN450); [1]
  MIC Gram Positive (SA RN450): *** (Good antibacterial activity (e.g., less than about 4 μg/mL))
E. coli (EC D1-209); [1]
  MIC Gram Negative (EC D1-209): * (weak antibacterial activity (greater than about 8 μg/mL))

## CN(C)c1cc(-c2ccc(CN3CCN(CCO)CC3)o2)c(O)c2c1C[C@H]1C[C@H]3[C@H](N(C)C)C(O)=C(C(N)=O)C(=O)[C@@]3(O)C(O)=C1C2=O [BA]
S. aureus (SA RN450); [1]
  MIC Gram Positive (SA RN450): *** (Good antibacterial activity (e.g., less than about 4 μg/mL))
E. coli (EC D1-209); [1]
  MIC Gram Negative (EC D1-209): * (weak antibacterial activity (greater than about 8 μg/mL))

## CN(C)c1cc(-c2cccc(C(N)=O)c2)c(O)c2c1CC1CC3C(N(C)C)C(O)=C(C(N)=O)C(=O)C3(O)C(O)=C1C2=O (centres unmarked) [CD]
S. aureus (SA RN450); [1]
  MIC Gram Positive (SA RN450): ** (modest antibacterial activity (between about 4 and 8 μg/mL))
E. coli (EC D1-209); [1]
  MIC Gram Negative (EC D1-209): * (weak antibacterial activity (greater than about 8 μg/mL))

## CC(=O)c1cccc(-c2ccc(O)c3c2CC2CC4C(N(C)C)C(O)=C(C(N)=O)C(=O)C4(O)C(O)=C2C3=O)c1 (centres unmarked) [AS]
S. aureus (SA RN450); [1]
  MIC Gram Positive (SA RN450): *** (Good antibacterial activity (e.g., less than about 4 μg/mL))
E. coli (EC D1-209); [1]
  MIC Gram Negative (EC D1-209): * (weak antibacterial activity (greater than about 8 μg/mL))

## CN(C)CCCOc1ccc(-c2ccc(O)c3c2CC2CC4C(N(C)C)C(O)=C(C(N)=O)C(=O)C4(O)C(O)=C2C3=O)cn1 (centres unmarked) [W]
S. aureus (SA RN450); [1]
  MIC Gram Positive (SA RN450): *** (Good antibacterial activity (e.g., less than about 4 μg/mL))
E. coli (EC D1-209); [1]
  MIC Gram Negative (EC D1-209): *** (Good antibacterial activity (e.g., less than about 4 μg/mL))

## CN(C)C1C(O)=C(C(N)=O)C(=O)C2(O)C(O)=C3C(=O)c4c(O)ccc(C(=O)CNCC(C)(C)C)c4CC3CC12 (centres unmarked) [BP]
S. aureus (SA RN450); [1]
  MIC Gram Positive (SA RN450): *** (Good antibacterial activity (e.g., less than about 4 μg/mL))
E. coli (EC D1-209); [1]
  MIC Gram Negative (EC D1-209): * (weak antibacterial activity (greater than about 8 μg/mL))

## CN(C)CCCNC(=O)c1cccc(-c2cc(N(C)C)c3c(c2O)C(=O)C2=C(O)[C@]4(O)C(=O)C(C(N)=O)=C(O)[C@@H](N(C)C)[C@@H]4C[C@@H]2C3)c1 [Compound X]
S. aureus (SA RN450); [1]
  MIC Gram Positive (SA RN450): * (weak antibacterial activity (greater than about 8 μg/mL))
E. coli (EC D1-209); [1]
  MIC Gram Negative (EC D1-209): * (weak antibacterial activity (greater than about 8 μg/mL))

## CN(C)C1C(O)=C(C(N)=O)C(=O)C2(O)C(O)=C3C(=O)c4c(O)ccc(C(=O)CNCc5ccccn5)c4CC3CC12 (centres unmarked) [BY]
S. aureus (SA RN450); [1]
  MIC Gram Positive (SA RN450): *** (Good antibacterial activity (e.g., less than about 4 μg/mL))
E. coli (EC D1-209); [1]
  MIC Gram Negative (EC D1-209): * (weak antibacterial activity (greater than about 8 μg/mL))

## CN1CCN(CC(=O)c2ccc(O)c3c2CC2CC4C(N(C)C)C(O)=C(C(N)=O)C(=O)C4(O)C(O)=C2C3=O)CC1 (centres unmarked) [BB]
S. aureus (SA RN450); [1]
  MIC Gram Positive (SA RN450): *** (Good antibacterial activity (e.g., less than about 4 μg/mL))
E. coli (EC D1-209); [1]
  MIC Gram Negative (EC D1-209): * (weak antibacterial activity (greater than about 8 μg/mL))

## CN(C)C1C(O)=C(C(N)=O)C(=O)C2(O)C(O)=C3C(=O)c4c(O)ccc(C(=O)CN5CCN(C6CCCCC6)CC5)c4CC3CC12 (centres unmarked) [BU]
S. aureus (SA RN450); [1]
  MIC Gram Positive (SA RN450): *** (Good antibacterial activity (e.g., less than about 4 μg/mL))
E. coli (EC D1-209); [1]
  MIC Gram Negative (EC D1-209): *** (Good antibacterial activity (e.g., less than about 4 μg/mL))

## CN(C)C1C(O)=C(C(N)=O)C(=O)C2(O)C(O)=C3C(=O)c4c(O)ccc(C(=O)CNCC(F)(F)F)c4CC3CC12 (centres unmarked) [BT]
S. aureus (SA RN450); [1]
  MIC Gram Positive (SA RN450): *** (Good antibacterial activity (e.g., less than about 4 μg/mL))
E. coli (EC D1-209); [1]
  MIC Gram Negative (EC D1-209): * (weak antibacterial activity (greater than about 8 μg/mL))

## CN(C)CCc1ccc(O)c2c1CC1CC3C(N(C)C)C(O)=C(C(N)=O)C(=O)C3(O)C(O)=C1C2=O (centres unmarked) [Compound BD]
S. aureus (SA RN450); [1]
  MIC Gram Positive (SA RN450): *** (Good antibacterial activity (e.g., less than about 4 μg/mL))
E. coli (EC D1-209); [1]
  MIC Gram Negative (EC D1-209): * (weak antibacterial activity (greater than about 8 μg/mL))

## CN1CCN(C(=O)c2cccc(-c3ccc(O)c4c3CC3CC5C(N(C)C)C(O)=C(C(N)=O)C(=O)C5(O)C(O)=C3C4=O)c2)CC1 (centres unmarked) [D]
S. aureus (SA RN450); [1]
  MIC Gram Positive (SA RN450): * (weak antibacterial activity (greater than about 8 μg/mL))
E. coli (EC D1-209); [1]
  MIC Gram Negative (EC D1-209): * (weak antibacterial activity (greater than about 8 μg/mL))

## CN(C)C1C(O)=C(C(N)=O)C(=O)C2(O)C(O)=C3C(=O)c4c(O)ccc(C(=O)CNCC(N)=O)c4CC3CC12 (centres unmarked) [BZ]
S. aureus (SA RN450)
  MIC Gram Positive (SA RN450): ** (key: ***: Good antibacterial activity (e.g., less than about 4 μg/mL); **: modest antibacterial activity (between about 4 and 8 μg/mL); *: weak antibacterial activity (greater than about 8 μg/mL))
E. coli (EC D1-209)
  MIC Gram Negative (EC D1-209): * (key: ***: Good antibacterial activity (e.g., less than about 4 μg/mL); **: modest antibacterial activity (between about 4 and 8 μg/mL); *: weak antibacterial activity (greater than about 8 μg/mL))

## CN(C)CCNC(=O)c1cccc(-c2ccc(O)c3c2CC2CC4C(N(C)C)C(O)=C(C(N)=O)C(=O)C4(O)C(O)=C2C3=O)c1F (centres unmarked) [AP]
S. aureus (SA RN450); [1]
  MIC Gram Positive (SA RN450): *** (Good antibacterial activity (e.g., less than about 4 μg/mL))
E. coli (EC D1-209); [1]
  MIC Gram Negative (EC D1-209): * (weak antibacterial activity (greater than about 8 μg/mL))

## CC(C)OC(=O)c1cccc(-c2ccc(O)c3c2CC2CC4C(N(C)C)C(O)=C(C(N)=O)C(=O)C4(O)C(O)=C2C3=O)c1 (centres unmarked) [AU]
S. aureus (SA RN450); [1]
  MIC Gram Positive (SA RN450): *** (Good antibacterial activity (e.g., less than about 4 μg/mL))
E. coli (EC D1-209); [1]
  MIC Gram Negative (EC D1-209): * (weak antibacterial activity (greater than about 8 μg/mL))

## CN(C)CC(=O)N1CC=C(c2ccc(O)c3c2CC2CC4C(N(C)C)C(O)=C(C(N)=O)C(=O)C4(O)C(O)=C2C3=O)CC1 (centres unmarked) [Compound AL]
S. aureus (SA RN450); [1]
  MIC Gram Positive (SA RN450): *** (Good antibacterial activity (e.g., less than about 4 μg/mL))
E. coli (EC D1-209); [1]
  MIC Gram Negative (EC D1-209): * (weak antibacterial activity (greater than about 8 μg/mL))

## CN1CCN(C(=O)c2cccc(-c3ccc(O)c4c3CC3CC5C(N(C)C)C(O)=C(C(N)=O)C(=O)C5(O)C(O)=C3C4=O)c2)CC1 (centres unmarked) [Compound C]
S. aureus (SA RN450); [1]
  MIC Gram Positive (SA RN450): *** (Good antibacterial activity (e.g., less than about 4 μg/mL))
E. coli (EC D1-209); [1]
  MIC Gram Negative (EC D1-209): * (weak antibacterial activity (greater than about 8 μg/mL))

## COc1ccc(CN(C)C)cc1-c1ccc(O)c2c1CC1CC3C(N(C)C)C(O)=C(C(N)=O)C(=O)C3(O)C(O)=C1C2=O (centres unmarked) [AT]
S. aureus (SA RN450); [1]
  MIC Gram Positive (SA RN450): *** (Good antibacterial activity (e.g., less than about 4 μg/mL))
E. coli (EC D1-209); [1]
  MIC Gram Negative (EC D1-209): *** (Good antibacterial activity (e.g., less than about 4 μg/mL))

## CN(C)CCNC(=O)c1cccc(-c2ccc(O)c3c2C[C@H]2C[C@H]4CC(O)=C(C(N)=O)C(=O)[C@@]4(O)C(O)=C2C3=O)c1 [Compound Z, (4aS,5aR,12aS)-7-[3-(2-Dimethylamino-ethylcarbamoyl)-phenyl]-3,10,12,12a-tetrahydroxy-1,11-dioxo-1,4,4a,5,5a,6,11,12a-octahydro-naphthacene-2-carboxylic Acid Amide]
S. aureus (SA RN450); Staphylococcus aureus, CLSI methodology, 35° C., 18-24 hours
  MIC: > 8 µg/mL
E. coli (EC D1-209); Escherichia coli, CLSI methodology, 35° C., 18-24 hours
  MIC: > 8 µg/mL

Reference: patent publication US7935687B2, “Methods for treating spinal muscular atrophy using tetracycline compounds” (Paratek Pharmaceuticals, Inc., priority 2007, dated 2011)
